In US20080317858A1, “FORMULATIONS OF N-(2-ACETYL-4,6-DIMETHYLPHENYL)-3--2-THIOPHENECARBOXAMIDE” (priority 2007, published 2008):

With `CC(=O)c1cc(C)cc(C)c1NC(=O)c1sccc1S(=O)(=O)Nc1onc(C)c1C` [N-(2-acetyl-4,6-dimethylphenyl)-3-{[(3,4 dimethyl-5-isoxazolyl)amino]sulfonyl}-2-thiophenecarboxamide] as the molecule, how does the melting point read?
The melting point was 158 to 160 °C.
